Experimental findings from patent publication US20140187538A1, “LORCASERIN HYDROCHLORIDE” (DR. REDDY'S LABORATORIES LTD., priority 2012, published 2014) are described below.

This data set can be described thus: physical stability of the amorphous solid form (tendency to crystallize over time). To be noted: solid state; amorphous drug substance alone vs amorphous solid dispersion; crystallization over a period of time. Format: physicochemical.

SMILES strings stand for the structures.

Take `C[C@H]1CNCCc2ccc(Cl)cc21.Cl` [amorphous lorcaserin hydrochloride]: the physical stability entry is “limited physical stability”.
